Here are results for 32 compounds from PubChem BioAssay AID1259408 (Genetic Toxicology Data Bank (GENE-TOX), 2018).

The source made the active and inactive calls. No rule for the calls is given here.

In this series the test system is GENE-TOX genotoxicity assays, various organisms and cells. Kind of series: GENE-TOX mutagenicity studies. As to conditions: for call: Assay Type: In vivo carcinogenicity studies.
Where [1] appears, read: Species/Cell Type: Allium cepa, Assay Type: Chromosome aberrations, Assay Code: ALC+, Evaluation Type: Evaluation A (Pre-1980).
Setting [2] is: Species/Cell Type: Salmonella typhimurium (one or more of the five standard strains: TA98, TA100, TA1535, TA1537, and TA1538), Assay Type: Histidine reverse gene mutation, Ames assay, Assay Code: SAL+*, Activation: With metabolic activation, Evaluation Type: Evaluation A (Pre-1980).
[3] abbreviates: Species/Cell Type: Human, Sex: Male, Assay Type: Sperm morphology, Assay Code: SPH+, Evaluation Type: Evaluation A (Pre-1980).
The mark [4] stands for this setting: Species/Cell Type: Mammalian polychromatic erythrocytes, Assay Type: Micronucleus test, chromosome aberrations, Assay Code: MNTT, Evaluation Type: Evaluation B (Post-1980).
Where [5] appears, read: Species/Cell Type: Human lymphocytes, Assay Type: Sister-chromatid exchange (SCE) in vitro, Assay Code: SCLT, Evaluation Type: Evaluation B (Post-1980).
[6] abbreviates: Species/Cell Type: Drosophila melanogaster, Assay Type: Sex-linked recessive lethal gene mutation, Assay Code: SRL+, Evaluation Type: Evaluation A (Pre-1980).
The mark [7] stands for this setting: Species/Cell Type: Nonhuman, Assay Code: CCG+, Evaluation Type: Evaluation A (Pre-1980).
[8] abbreviates: Species/Cell Type: Salmonella typhimurium, Assay Type: Forward and reverse gene mutation, host-mediated assay, Assay Code: HMA+, Evaluation Type: Evaluation A (Pre-1980).
[9] abbreviates: Species/Cell Type: Aspergillus nidulans, Assay Type: Aneuploidy, chromosome aberrations, Assay Code: ASN+, Evaluation Type: Evaluation A (Pre-1980).
Where [10] appears, read: Species/Cell Type: Chinese hamster lung (V79) cells, Assay Type: Forward gene mutation at the HPRT or ouabain locus, Assay Code: V79+, Evaluation Type: Evaluation A (Pre-1980).
The mark [11] stands for this setting: Species/Cell Type: Salmonella typhimurium (one or more of the five standard strains: TA98, TA100, TA1535, TA1537, and TA1538), Assay Type: Histidine reverse gene mutation, Ames assay, Assay Code: SALT, Evaluation Type: Evaluation A (Pre-1980).
[12] abbreviates: Species/Cell Type: Tradescantia species, Assay Type: Gene mutation, Assay Code: TRM+D, Dose Response: With dose response, Evaluation Type: Evaluation A (Pre-1980).

As for `COc1ccc(O)cc1`, the mutagenic call under setting [1] was “active; positive”.

Take `OCc1c2ccccc2c(CO)c2c1ccc1ccccc12`: the mutagenic call (Species/Cell Type: Chinese hamster lung (V79) cells, Assay Type: Forward gene mutation at the HPRT or ouabain locus, Assay Code: V79-*, Activation: With metabolic activation, Evaluation Type: Evaluation A (Pre-1980)) was “inactive; negative”. Further, under “Species/Cell Type: Nonhuman, Assay Code: CCGT, Evaluation Type: Evaluation A (Pre-1980)”, the call is on record as “no conclusion”.

With `CC1CN(N=O)CCN1N=O` (stereo unspecified), the mutagenic call under setting [2] is “active; positive”.

In the case of `c1ccc(N=NNc2ccccc2)cc1`, the mutagenic call under setting [1] is “active; positive”.

Turning to `CCc1cccc(CC)c1N(COC)C(=O)CCl`, the mutagenic call (Species/Cell Type: Saccharomyces cerevisiae, Assay Type: Mitotic recombination or gene conversion, Assay Code: YEC+*, Activation: With metabolic activation, Evaluation Type: Evaluation A (Pre-1980)) was “active; positive”.

With `C[C@]12C=CC(=O)C=C1CC[C@@H]1[C@@H]2CC[C@@]2(C)[C@H]1CC[C@]2(C)O`, the mutagenic call under setting [3] is “active; positive”.

As to `COc1ccc2nc3cc(Cl)ccc3c(NCCCNCCCl)c2n1`, where the note is “Species/Cell Type: Chinese hamster ovary (CHO) cells, Assay Type: Forward gene mutation at the HPRT locus, Assay Code: CHO+D, Dose Response: With dose response, Evaluation Type: Evaluation A (Pre-1980)”, the mutagenic call was “active; positive”.

`Cc1c(N)c(=O)n(-c2ccccc2)n1C`: the mutagenic call (Species/Cell Type: Salmonella typhimurium (one or more of the five standard strains: TA98, TA100, TA1535, TA1537, and TA1538), Assay Type: Histidine reverse gene mutation, Ames assay, Assay Code: SAL-, Evaluation Type: Evaluation A (Pre-1980)) was “inactive; negative”.

Turning to `Cn1ncc2c(NC3=NCCO3)cccc21`, the mutagenic call is, setting by setting: under setting [4], “no conclusion”; (Species/Cell Type: Nonhuman, Assay Type: Sister-chromatid exchange (SCE) in vivo, Assay Code: SC3T, Evaluation Type: Evaluation B (Post-1980)) “no conclusion”.

Regarding `Cc1c(C)c2c(c(C)c1O)CC[C@@](C)(CCC[C@H](C)CCC[C@H](C)CCCC(C)C)O2`, the mutagenic call runs as follows: under setting [5], “no conclusion”; (Species/Cell Type: Human, Assay Type: Sister-chromatid exchange (SCE) in vitro, Assay Code: SC1T, Evaluation Type: Evaluation B (Post-1980)) “no conclusion”.

Turning to `O=NN1CCN(N=O)CC1`, the mutagenic call was “active; positive” under setting [6]; “no conclusion” (Species/Cell Type: Drosophila melanogaster, Sex: Male, Assay Type: Heritable translocation test, chromosome aberrations, Assay Code: DHTT, Evaluation Type: Evaluation A (Pre-1980)); “inactive; negative” (Species/Cell Type: Glycine max (soybean), Assay Type: Gene mutation, Assay Code: GLM-, Evaluation Type: Evaluation A (Pre-1980)); “active; positive” (Species/Cell Type: Mouse embryo (AKR/ME) cells, Assay Type: Cell transformation, Assay Code: CTK+, Evaluation Type: Evaluation A (Pre-1980)); “active; positive” under setting [2]; “active; positive” under setting [8]. The call under setting [7] is “active; positive”.

With `OCc1ccn2c1[C@H](O)CC2`, the mutagenic call was “active; positive” (Species/Cell Type: Human lymphocytes, Assay Type: Sister-chromatid exchange (SCE) in vitro, Assay Code: SCL+D, Dose Response: With dose response, Evaluation Type: Evaluation B (Post-1980)) and “active; positive” (Species/Cell Type: Human, Assay Type: Sister-chromatid exchange (SCE) in vitro, Assay Code: SC1+D, Dose Response: With dose response, Evaluation Type: Evaluation B (Post-1980)).

Regarding `CC1=CCc2c1c(C)c(C)c1c2ccc2ccccc21`, the mutagenic call under setting [2] was “active; positive”.

Consider `O=C(Nc1cccc(Cl)c1)OCC#CCCl`, for which the mutagenic call (Species/Cell Type: Bacillus subtilis (H17 vs M45), Assay Type: Rec-assay, spot test, DNA effects (bacterial DNA repair), Assay Code: REW+, Evaluation Type: Evaluation A (Pre-1980)) was “active; positive”.

In the case of `CCS(=O)(=O)OC`, the mutagenic call reads like this: (Species/Cell Type: Glycine max (soybean), Assay Type: Gene mutation, Assay Code: GLM+, Evaluation Type: Evaluation A (Pre-1980)) “active; positive”; (Species/Cell Type: Hordeum vulgare (barley), Assay Type: Chromosome aberrations, Assay Code: HOC+, Evaluation Type: Evaluation A (Pre-1980)) “active; positive”; (Species/Cell Type: Hordeum vulgare (barley), Assay Type: Gene mutation, Assay Code: HOM+D, Dose Response: With dose response, Evaluation Type: Evaluation A (Pre-1980)) “active; positive”; (Species/Cell Type: Rabbit, Sex: Male, Assay Type: Sperm morphology, Assay Code: SPRT, Evaluation Type: Evaluation A (Pre-1980)) “no conclusion”.

For the compound `O=C(O)c1ccc(C(=O)O)cc1`, for the setting “Species/Cell Type: Syrian hamster embryo (SA7/SHE) cells, Assay Type: Cell transformation, viral enhanced, Assay Code: CT7-, Evaluation Type: Evaluation A (Pre-1980)”, the mutagenic call is “inactive; negative”.

For `CCN(CC)Cc1cc(CC(=O)NN)ccc1OC`, the mutagenic call (Species/Cell Type: Saccharomyces cerevisiae, Assay Type: Reverse gene mutation, Assay Code: YERT, Evaluation Type: Evaluation A (Pre-1980)) is listed as “no conclusion”.

Turning to `COc1cc(Cl)c(OC)cc1Cl`, the mutagenic call by setting is: under setting [9], “active; positive”; (Species/Cell Type: Aspergillus nidulans, Assay Type: Mitotic recombination, Assay Code: ASG+, Evaluation Type: Evaluation A (Pre-1980)) “active; positive”.

Consider `CCCCCCC(=O)O[C@H]1CC[C@H]2[C@@H]3CCC4=CC(=O)CC[C@]4(C)[C@H]3CC[C@]12C`, for which the mutagenic call under setting [3] is “active; positive”. For the same compound, the call under setting [7] was “active; positive”.

As to `Cc1c2ccccc2c(CO)c2ccc3ccccc3c12`, the mutagenic call is “active; positive” under setting [10]; “active; positive” (Species/Cell Type: Escherichia coli polA (W3110 vs P3478), Assay Type: Rec-assay, DNA effects (bacterial DNA repair), Assay Code: RE2+, Evaluation Type: Evaluation A (Pre-1980)); “no conclusion” (Species/Cell Type: Escherichia coli polA (W3119 vs P3478), Assay Type: Rec-assay, DNA effects (bacterial DNA repair), Assay Code: RE1T, Evaluation Type: Evaluation A (Pre-1980)); “inactive; negative” (Species/Cell Type: Saccharomyces cerevisiae, Assay Type: Mitotic recombination or gene conversion, Assay Code: YEH-, Evaluation Type: Evaluation A (Pre-1980)); “active; positive” under setting [2]; “inactive; negative” (Species/Cell Type: Salmonella typhimurium, Assay Type: Forward and reverse gene mutation, host-mediated assay, Assay Code: HMA-, Evaluation Type: Evaluation A (Pre-1980)). Under setting [7], the call is “active; positive”.

In the case of `CNC(=O)N(C)N=O`, the mutagenic call was “active; positive” (Species/Cell Type: Arabidopsis species, Assay Type: Gene mutation, Assay Code: ARM+, Evaluation Type: Evaluation A (Pre-1980)); “active; positive” (Species/Cell Type: Salmonella typhimurium (one or more of the five standard strains: TA98, TA100, TA1535, TA1537, and TA1538), Assay Type: Histidine reverse gene mutation, Ames assay, Assay Code: SAL+, Evaluation Type: Evaluation A (Pre-1980)); “active; positive” (Species/Cell Type: Zea mays (corn), Assay Type: Gene mutation, Assay Code: ZEM+D, Dose Response: With dose response, Evaluation Type: Evaluation A (Pre-1980)).

Consider `CN=C(N)NC(=O)Nc1c(C)cccc1C`, for which the mutagenic call under setting [4] is listed as “no conclusion”.

`OCC(Cl)(Cl)Cl`: the mutagenic call under setting [11] is “no conclusion”.

With `C=CBr`, under setting [12], the mutagenic call was “active; positive”.

Take `COc1ccc(C(=O)N2c3ccccc3Cc3ccccc32)cc1`: under setting [3], the mutagenic call was “active; positive”.

Take `Nc1nc(-c2cccc3ccccc23)cs1`: the mutagenic call (Species/Cell Type: Salmonella typhimurium, Assay Type: Forward and reverse gene mutation, host-mediated assay, Assay Code: HMAT, Evaluation Type: Evaluation A (Pre-1980)) is given as “no conclusion”.

Take `CCCCSP(=O)(SCCCC)SCCCC`: the mutagenic call (Species/Cell Type: Nonhuman, Assay Type: Sister-chromatid exchange (SCE) in vitro, Assay Code: SC2-, Evaluation Type: Evaluation B (Post-1980)) is “inactive; negative”.

Regarding `NC(=O)N1c2ccccc2C2OC2c2ccccc21` (stereo unspecified), the mutagenic call under setting [5] is “no conclusion” and the mutagenic call under setting [11] is listed as “no conclusion”.

For `COc1ccc2c3c([nH]c2c1)C(C)=NCC3`, under setting [11], the mutagenic call is “no conclusion”.

With `Clc1ccc(COC(Cn2ccnc2)c2ccc(Cl)cc2Cl)cc1` (stereo unspecified), under setting [9], the mutagenic call was “active; positive”.

With `O=S=O`, the mutagenic call (Species/Cell Type: Human lymphocytes, Assay Type: Sister-chromatid exchange (SCE) in vivo, Assay Code: SCY+, Evaluation Type: Evaluation B (Post-1980)) was “active; positive”; the mutagenic call (Species/Cell Type: Tradescantia species, Assay Type: Chromosome aberrations, Assay Code: TRC+, Evaluation Type: Evaluation A (Pre-1980)) is “active; positive”; the mutagenic call under setting [12] was “active; positive”.

`CN1CCN(N=O)CC1`: the mutagenic call under setting [10] was “active; positive”, the mutagenic call under setting [6] is “active; positive”, the mutagenic call under setting [11] was “no conclusion” and the mutagenic call under setting [8] is “active; positive”.
